Results as given in paper PMC12040169 (PLOS Biology, 2025).

assay: in vitro; conditions: human, hela cells, % viability

Row | SMILES | viability at 28.5 h, 10 µM [%]
1 | FC(F)(F)c1ccc(CNc2nccnc2-c2cccs2)cc1 [CBK036834] | 98.6
2 | O=C(Nc1cnc(-c2cccc(OC(F)(F)F)c2)c(-c2cccnc2)n1)c1ccccn1 [CBK036837] | 99.2
3 | CN1CCN(C(=O)c2ccc(-c3nccnc3NCCc3cccnc3)cc2)CC1 [CBK036838] | 97.2
4 | COc1ccc(-c2nc(NC(=O)Cc3ccccc3OC)cnc2-c2cccc(C)c2)cn1 [CBK036839] | 111
5 | CC(=O)c1ccc(-c2nc(NC(=O)CC#N)cnc2-c2ccc(F)c(Cl)c2)s1 [CBK036841] | 108
6 | O=C(CCN1CCCCC1)Nc1cnc(-c2ccc(F)cc2)c(-c2ccsc2)n1 [CBK036846] | 90.3
7 | COc1ncc(-c2ccc(N3CCN(c4ccncc4)CC3)nc2)c(OC)n1 [CBK036848] | 99.1
8 | c1ccc(N2CCN(c3cccc(-c4ccc5c(c4)OCO5)n3)CC2)nc1 [CBK036851] | 104
9 | O=C1CCCN1CCCNc1nccnc1-c1ccc(CO)cc1 [CBK036860] | 87.2
10 | Fc1cccc(-c2nccnc2NCCc2c[nH]c3ccccc23)c1 [CBK036861] | 96.7
11 | COCCNc1nccnc1-c1cccc(C(=O)N2CCN(C)CC2)c1 [CBK036864] | 99.9
12 | COc1cc(CNc2nccnc2-c2ccc(C(=O)N3CCOCC3)cc2)cc(OC)c1 [CBK036866] | 99.2
13 | O=C(Nc1cnc(-c2cccc(C(F)(F)F)c2)c(-c2ccco2)n1)c1ccccn1 [CBK036873] | 88.5
14 | c1ccc(N2CCN(c3cccc(-c4cc5ccccc5o4)n3)CC2)nc1 [CBK036875] | 107
15 | CN1CCN(c2nccnc2-c2cccc(F)c2)CC1 [CBK036876] | 89.8
16 | CN(C)c1cccc(Nc2ccc(-c3cccc(C(=O)O)c3)cn2)c1 [CBK036879] | 101
17 | O=C(O)c1cccc(-c2cccc(N3CCN(c4ccccn4)CC3)n2)c1 [CBK036888] | 92.7
18 | COc1ccccc1-c1nccnc1NCc1ccccn1 [CBK036894] | 108
19 | O=C(CCOc1ccccc1F)Nc1cnc(-c2ccc(F)cc2)c(-c2ccsc2)n1 [CBK036897] | 99.7
20 | C=CCNc1nccnc1-c1ccc(O)cc1 [CBK036898] | 99.6
21 | CN(C)c1ccc(CC(=O)Nc2cnc(-c3cccc(C(F)(F)F)c3)c(-c3cccnc3)n2)cc1 [CBK036901] | 98.2
22 | COc1cc(-c2ccc(NCCn3cc[nH]c3=O)nc2)cc(OC)c1OC [CBK036907] | 106
23 | COc1ccccc1-c1ccc(Nc2ccccc2)nc1 [CBK036909] | 85.4

Row | SMILES | viability at 28.5 h, 10 µM [%]
24 | NCCCNc1ccc(-c2ccco2)cn1 [CBK036911] | 100
25 | c1ccc(Oc2ccccc2-c2ccc(Nc3ccc(N4CCOCC4)cc3)nc2)cc1 [CBK036913] | 108
26 | CN(C)c1cccc(Nc2ccc(-c3ccc(CCC(=O)O)cc3)cn2)c1 [CBK036918] | 97.2
27 | O=C(c1ccc(-c2nccnc2NCc2ccco2)cc1)N1CCOCC1 [CBK036920] | 98.6
28 | CS(=O)(=O)c1ccc(-c2nccnc2N2CCN(c3ccncc3)CC2)cc1 [CBK036924] | 98.5
29 | CN(C)c1ccc(-c2nccnc2NCC(O)COc2ccccc2)cc1 (centres unmarked) [CBK036928] | 103
30 | CC(=O)c1ccc(-c2nc(NC(=O)c3ccccn3)cnc2-c2cccc(OC(F)(F)F)c2)s1 [CBK036929] | 107
31 | Cc1ccc(-c2ccc(N3CCN(C)CC3)nc2)cc1C [CBK036937] | 93.7
32 | CCOc1ccccc1C(=O)Nc1cnc(-c2cccc(OC(F)(F)F)c2)c(-c2cccnc2)n1 [CBK036952] | 114
33 | COc1ccc(-c2nc(NC(=O)c3ccco3)cnc2-c2cccc(C)c2)cn1 [CBK036954] | 96.8
34 | O=C(COc1ccccc1)Nc1cnc(-c2ccc(F)cc2)c(-c2ccsc2)n1 [CBK036958] | 91.7
35 | CC(=O)Nc1cccc(-c2cc(N3CCN(C(=O)c4ccco4)CC3)ncn2)c1 [CBK036959] | 93.7
36 | c1ccc(CCNc2cc(-c3ccsc3)ncn2)nc1 [CBK036963] | 93.9
37 | c1cncc(-c2nccnc2N2CCN(c3ccncc3)CC2)c1 [CBK036965] | 86.4
38 | COc1ccc(N2CCN(c3nccnc3-c3ccc(C(C)=O)s3)CC2)cc1OC [CBK036968] | 109
39 | COc1ccc(-c2cc(Nc3ccc(N(C)C)cc3)ncn2)cc1OC [CBK036969] | 108
40 | COc1ncc(-c2nccnc2NCC(C)O)c(OC)n1 (centres unmarked) [CBK036970] | 105
41 | CCN(CC)CCN1CCN(c2cc(-c3ccsc3)ncn2)CC1 [CBK036973] | 93.7
42 | c1ccc(CN2CC[C@H](Nc3nccnc3-c3cccnc3)C2)cc1 [CBK036978] | 104
43 | CCCC/C=C/c1ccc(N2CCN(CCN(C)C)CC2)nc1 [CBK036980] | 101
44 | CC(=O)c1ccc(-c2nccnc2N[C@@H]2CCN(Cc3ccccc3)C2)s1 [CBK036981] | 104
45 | CN1CCN(c2cccc(-c3cc(C(F)(F)F)cc(C(F)(F)F)c3)n2)CC1 [CBK036982] | 93.3
46 | CN(C)CCN(C)c1cccc(-c2ccc(CCC(=O)O)cc2)n1 [CBK036983] | 105

Row | SMILES | viability at 28.5 h, 10 µM [%]
47 | CN(C)c1cccc(Nc2ccc(/C=C/c3ccccc3)cn2)c1 [CBK036984] | 98.7
48 | Nc1cccc(-c2ccc(NCc3cc(F)c(F)c(F)c3)nc2)c1 [CBK036985] | 97.2
49 | c1ccc(Oc2ccc(Nc3cccc(-c4ccc(N5CCOCC5)cc4)n3)cc2)cc1 [CBK036986] | 95.4
50 | COc1cc(Nc2cccc(-c3ccsc3)n2)cc(OC)c1OC [CBK036987] | 97.9
51 | CC(=O)c1ccc(-c2cc(N3CCN(C(=O)c4ccco4)CC3)ncn2)s1 [CBK036999] | 105
52 | COc1ccccc1CCC(=O)Nc1cnc(-c2ccc(F)cc2)c(-c2ccco2)n1 [CBK037002] | 95.1
53 | CC(=O)c1ccc(-c2nccnc2N2CCN(c3ccncc3)CC2)s1 [CBK037015] | 95.8
54 | C=CCNc1nccnc1-c1cccnc1 [CBK037016] | 101
55 | Oc1cccc(-c2nccnc2N[C@@H]2CCN(Cc3ccccc3)C2)c1 [CBK037017] | 98.2
56 | CN1CCN(c2cccc(-c3cc4ccccc4s3)n2)CC1 [CBK037019] | 102
57 | COc1ccc(Nc2ccc(-c3cccc(OC(F)(F)F)c3)cn2)cn1 [CBK037022] | 100
58 | COc1cncc(-c2cccc(N3CCN(CCN(C)C)CC3)n2)c1 [CBK037024] | 97.4
59 | Oc1ccc(-c2cccc(N3CCN(c4ccccn4)CC3)n2)cc1 [CBK037028] | 103
60 | CN(C)CCN1CCN(c2cccc(-c3ccncc3)n2)CC1 [CBK037029] | 95.9
61 | Cc1cccc(-c2ncc(NC(=O)Cc3ccc(OC(F)(F)F)cc3)nc2-c2cccnc2)c1 [CBK037030] | 89.2
62 | C[C@H](Nc1nccnc1-c1ccco1)c1ccccc1 [CBK037032] | 93.1
63 | COc1ncc(-c2cc(N3CCN(CCN(C)C)CC3)n3nccc3n2)c(OC)n1 [CBK037033] | 87.7
64 | CC(=O)N1CCC(C(=O)Nc2cnc(-c3ccc(F)cc3)c(-c3ccco3)n2)CC1 [CBK037038] | 104
65 | CN(C)c1ccccc1-c1cc(N2CCN(S(=O)(=O)c3ccc(Cl)cc3)CC2)ncn1 [CBK037039] | 81.7
66 | Clc1cc(NCc2ccc(Cl)c(Cl)c2)n2nccc2n1 [CBK037043] | 97.7
67 | CC(=O)c1ccc(-c2nccnc2NCc2cccnc2)s1 [CBK037050] | 99.5
68 | C=CCNc1nccnc1-c1ccc(C(C)=O)s1 [CBK037052] | 88.8
69 | OC(CNc1nccnc1-c1ccsc1)COc1ccccc1 (centres unmarked) [CBK037057] | 96.3

Row | SMILES | viability at 28.5 h, 10 µM [%]
70 | O=C(c1ccc(-c2nccnc2NCc2cccs2)cc1)N1CCOCC1 [CBK037059] | 98.8
71 | COc1cc(-c2cc(N3CCN(Cc4cccnc4)CC3)n3nccc3n2)cc(OC)c1OC [CBK037063] | 95.9
72 | OCc1ccc(-c2nccnc2NCc2cccc(C(F)(F)F)c2)cc1 [CBK037076] | 114
73 | Oc1cccc(-c2nccnc2N2CCN(c3ccncc3)CC2)c1 [CBK037079] | 113
74 | O=C(O)c1cccc(-c2cc(N3CCN(Cc4cccnc4)CC3)n3nccc3n2)c1 [CBK037080] | 106
75 | OC(CNc1nccnc1-c1ccccc1Cl)COc1ccccc1 (centres unmarked) [CBK037085] | 92
76 | OCc1ccc(-c2nccnc2NCc2ccccn2)cc1 [CBK037088] | 106
77 | CC(C)Nc1nccnc1-c1cccc(O)c1 [CBK037089] | 97.3
78 | Cc1cccc(-c2ncc(NC(=O)COc3ccc([N+](=O)[O-])cc3)nc2-c2cccnc2)c1 [CBK037096] | 97.8
79 | CN1CCN(c2cc(-c3cccc(CO)c3)nc3ccnn23)CC1 [CBK037099] | 98.1
80 | CCCNc1nccnc1-c1ccc(F)c(Cl)c1 [CBK037100] | 104
81 | CC(CCCC(C)(C)O)Nc1cc(N2CCN(C)CC2)n2nccc2n1 (centres unmarked) [CBK037103] | 98.2
82 | COc1ccc(-c2nc(NC(=O)c3cccc(S(C)(=O)=O)c3)cnc2-c2ccc(F)cc2)cc1 [CBK037110] | 100
83 | OCc1cccc(-c2cc(NCc3ccccc3)n3nccc3n2)c1 [CBK037113] | 95.6
84 | CCSc1ccc(-c2cc(N(C)c3cccc(C)c3)n3nccc3n2)cc1 [CBK037115] | 100
85 | CCCC/C=C/c1nccnc1NCc1ccco1 [CBK037116] | 105
86 | CC(C)[C@@H](CO)Nc1cc(-c2cccc(Br)c2)nc2ccnn12 [CBK037117] | 93.9
87 | COc1ccc(Nc2cc(-c3cccc(NC(C)=O)c3)ncn2)cn1 [CBK037125] | 95.1
88 | OCCN1CCN(c2cc(N3CCN(c4ccccn4)CC3)n3nccc3n2)CC1 [CBK037129] | 100
89 | CN(C)CCNC(=O)c1cccc(-c2cc(N3CCCN(C)CC3)n3nccc3n2)c1 [CBK037143] | 86.2
